According to PubChem BioAssay (NCI):
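96-well plates; 48 h exposure; 5 concentrations. Endpoints by linear interpolation between flanking doses. Not reached: highest tested concentration assigned. Here, GI50 denotes the concentration required for 50% inhibition of growth. TGI denotes the concentration required for complete inhibition of growth.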

Tests used:
Experiment in all cases: DTP human tumour cell line panel, 48 h
[1] = tested on: SNB-19 CNS
[2] = tested on: K-562 leukemia
[3] = tested on: SW-620 colon
[4] = tested on: NCI-H23 lung
[5] = tested on: UACC-62 melanoma
[6] = tested on: ACHN renal
[7] = tested on: SR leukemia
[8] = tested on: OVCAR-8 ovarian
[9] = tested on: COLO 205 colon
[10] = tested on: MOLT-4 leukemia
[11] = tested on: BT-549 breast
[12] = tested on: OVCAR-3 ovarian
[13] = tested on: CCRF-CEM leukemia
[14] = tested on: OVCAR-5 ovarian
[15] = tested on: SK-OV-3 ovarian
[16] = tested on: T-47D breast
[17] = tested on: MDA-MB-468 breast
[18] = tested on: HCC-2998 colon
[19] = tested on: RPMI-8226 leukemia
[20] = tested on: SK-MEL-2 melanoma
[21] = tested on: NCI-H522 lung
[22] = tested on: OVCAR-4 ovarian
[23] = tested on: HCT-116 colon
[24] = tested on: HOP-62 NSCLC
[25] = tested on: HCT-15 colon
[26] = tested on: SF-268 CNS
[27] = tested on: MALME-3M melanoma
[28] = tested on: SF-539 CNS
[29] = tested on: M14 melanoma
[30] = tested on: SF-295 CNS
[31] = tested on: SN12C renal
[32] = tested on: DU-145 prostate
[33] = tested on: KM12 colon
[34] = tested on: HOP-92 NSCLC
[35] = tested on: SNB-75 CNS
[36] = tested on: HL-60(TB) leukemia
[37] = tested on: HS 578T breast
[38] = tested on: EKVX NSCLC
[39] = tested on: PC-3 prostate
[40] = tested on: HT29 colon
[41] = tested on: LOX IMVI melanoma
[42] = tested on: RXF 393 renal
[43] = tested on: CAKI-1 renal
[44] = tested on: MDA-MB-435
[45] = tested on: A549 NSCLC
[46] = tested on: 786-0 renal

CN1CCN(C(=O)Oc2cc3c(c4ccccc24)[C@H](CCl)CN3C(=O)c2cc3cc(OCCCN4CCC4)ccc3[nH]2)[C@@H]2CSSC[C@H]21
GI50 [1]: 5.79 nM | TGI [1]: 76.2 nM | GI50 [2]: 4.4 nM | TGI [2]: > 10000 nM | GI50 [3]: 2.28 nM | TGI [3]: 1480 nM | GI50 [4]: 1.74 nM | TGI [4]: 5.41 nM | GI50 [5]: 2.2 nM | TGI [5]: 10.5 nM | GI50 [6]: 2.37 nM | TGI [6]: 7.23 nM | GI50 [7]: 1.68 nM | TGI [7]: 39.2 nM | GI50 [8]: 3.29 nM | TGI [8]: 129 nM | GI50 [9]: 14.8 nM | TGI [9]: 33.8 nM | GI50 [10]: 4.45 nM | TGI [10]: 223 nM | GI50 [11]: 21.3 nM | TGI [11]: 81.8 nM | GI50 [12]: 27.4 nM | TGI [12]: > 10000 nM | GI50 [13]: 7.41 nM | TGI [13]: 3320 nM | GI50 [14]: 6.88 nM | TGI [14]: 40.8 nM | GI50 [15]: 15 nM | TGI [15]: > 10000 nM | GI50 [16]: 14.8 nM | TGI [16]: > 10000 nM | GI50 [17]: 2.55 nM | TGI [17]: 7.92 nM | GI50 [18]: 3.47 nM | TGI [18]: 15.2 nM | GI50 [19]: 23.2 nM | TGI [19]: 1840 nM | GI50 [20]: 18.7 nM | TGI [20]: 35.2 nM | GI50 [21]: 10.9 nM | TGI [21]: 35.4 nM | GI50 [22]: 27.5 nM | TGI [22]: 93.4 nM | GI50 [23]: 6.75 nM | TGI [23]: > 10000 nM | GI50 [24]: 5.17 nM | TGI [24]: 60.1 nM | GI50 [25]: 3.82 nM | TGI [25]: 24.2 nM | GI50 [26]: 8.99 nM | TGI [26]: 293 nM | GI50 [27]: 6.37 nM | TGI [27]: 20 nM | GI50 [28]: 5.25 nM | TGI [28]: 21 nM | GI50 [29]: 5.63 nM | TGI [29]: 21.2 nM | GI50 [30]: 2.25 nM | TGI [30]: 6.82 nM | GI50 [31]: 10.5 nM | TGI [31]: 98.6 nM | GI50 [32]: 3.91 nM | TGI [32]: 2440 nM | GI50 [33]: 15.7 nM | TGI [33]: 1520 nM | GI50 [34]: 18.2 nM | TGI [34]: 62.9 nM | GI50 [35]: 19.7 nM | TGI [35]: 75 nM | GI50 [36]: 9.94 nM | TGI [36]: 321 nM | GI50 [37]: 27.9 nM | TGI [37]: 124 nM | GI50 [38]: 12.2 nM | TGI [38]: 40.6 nM | GI50 [39]: 19.7 nM | TGI [39]: 981 nM | GI50 [40]: 8.29 nM | TGI [40]: > 10000 nM | GI50 [41]: 2.2 nM | TGI [41]: 15.8 nM | GI50 [42]: 5.66 nM | TGI [42]: 19 nM | GI50 [43]: 2.82 nM | TGI [43]: > 10000 nM | GI50 [44]: 12.7 nM | TGI [44]: 38.1 nM | GI50 [45]: 1.79 nM | TGI [45]: > 10000 nM | GI50 [46]: 13.1 nM | TGI [46]: 40 nM
